Experimental data as given in PMC3792051, “Polyenylpyrrole Derivatives Inhibit NLRP3 Inflammasome Activation and Inflammatory Mediator Expression by Reducing Reactive Oxygen Species Production and Mitogen-Activated Protein Kinase Activation” (PLoS ONE, 2013).

How the values were obtained:
[1] = system: LPS-activated J774A.1 cells; test: NLRP3 and proIL-1β expression by Western blot; assay type: cell-based, mouse; conditions: J774A.1, 1-40 µM 30 min before LPS 6 h
Description: Cells were washed twice with ice-cold phosphate-buffered saline (PBS) and lysed on ice for 5 min with lysis buffer (20 mM Tris-HCl, pH 7.5, 150 mM NaCl, 1 mM Na 2EDTA, 1 mM EGTA, 1% Triton X-100, 2.5 mM sodium pyrophosphate, 1 mM beta-glycerophosphate, 1 mM Na 3VO4, 1 µg/ml of leupeptin, 1 mM PMSF, protease inhibitor cocktail). The lysate was then centrifuged at 12,000 x g at 4 °C for 10 min and the pellet discarded. […]
Figure 4 Effect of compound 1h on NLRP3 inflammasome activation in LPS+ATP-activated J774A.1 macrophages. (A) J774A.1 macrophages (1 × 10^6/ml; 1 ml) or (B) peritoneal macrophages (1 × 10^5/ml; 1 ml) were incubated with 10-40 µM compound 1h or DMSO for 30 min, then LPS (1 µg/ml) was added and incubation continued for 5.5 h, then the cells were stimulated with ATP (5 mM) for an additional 30 min, then IL-1β in the culture medium was measured by ELISA (A, upper panel; B) and levels of active caspase-1 (p10) (A, lower panel) measured by Western blotting. […] In (E), J774A.1 macrophages (1 × 10^6/ml; 1 ml) were incubated for 30 min with DMSO or 1-40 µM compound 1h, then LPS (1 µg/ml) was added and incubation continued for 6 h, then expression of NLRP3 and proIL-1β was measured by Western blotting. […]

[2] = system: RAW-Blue cells (RAW 264.7 with NF-κB reporter gene); test: NF-κB reporter assay (SEAP, QUANTI-Blue); assay type: cell-based, murine; conditions: 2.5-40 µM 30 min, LPS 1 µg/ml 24 h
Description: RAW-Blue™ cells, RAW 264.7 macrophages stably expressing the gene for secreted embryonic alkaline phosphatase (SEAP) inducible by NF-κB, were seeded in 60 mm dishes at a density of 5 × 10^5 cells/ml (1 ml) and grown overnight in a 5% CO2 incubator at 37 °C. They were then pretreated with vehicle or compound 1h for 30 min, then LPS (1 µg/ml) was added and incubation continued for 24 h. The medium was then harvested and 20 µl aliquots mixed with 200 µl of QUANTI-Blue™ medium (InvivoGen) in 96-well plates and incubated at 37 °C for 15 min, then SEAP activity was assessed by measuring the optical density at 655 nm using an ELISA reader.
Following LPS stimulation, IκB in the complex is phosphorylated by IκB kinase (IKK), ubiquitinated, and rapidly degraded in proteasomes, thus releasing NF-κB [30].
Figure 6 Effect of compound 1h on NF-κB activation in LPS-activated macrophages. (A) RAW 264.7 macrophages or (B) J774A.1 macrophages (both 5 × 10^5/ml; 1 ml) were incubated for 30 min with 10-40 µM compound 1h or DMSO, then LPS (1 µg/ml) was added and incubation continued for 20 min, then levels of phosphorylated and total IKK-α and IκB-α were measured by Western blotting. (C) RAW 264.7 macrophages or (D) J774A.1 macrophages (both 5 × 10^5/ml; 1 ml) were treated as in A and B, then nuclear translocation of NF-κB was analyzed by ELISA. […]

[3] = system: ATP-activated LPS-primed J774A.1 macrophages; test: Intracellular ROS production (DCF fluorescence), ATP-induced; assay type: cell-based, murine
Description: Intracellular ROS production was measured by detecting the fluorescence intensity of the 2’, 7’-dichlorofluorescein, the oxidation product of 2’, 7’-dichlorofluorescein diacetate (Molecular Probes, Eugene, OR). […] In another, J774A.1 macrophages (5 × 10^5/ml; 0.1 ml) were incubated with LPS (1 µg/ml) for 6 h, then vehicle, compound 1h (20 µM), or DPI (25 µM) was added for 30 min. 2’, 7’-dichlorofluorescein diacetate (2 µM) was then added for 30 min before incubation with ATP (5 mM) for the indicated time; while, in another, the order of addition of compound1h/DPI and LPS was reversed. The fluorescence intensity of 2’, 7’-dichlorofluorescein was detected at an excitation wavelength of 485 nm and an emission wavelength of 530 nm on a microplate absorbance reader (Bio-Rad Laboratories, Inc).
In (A), J774A.1 macrophages (1 × 10^6/ml; 1 ml) were incubated with LPS (1 µg/ml) for 6 h, then with compound 1h (20 µM), the NADPH oxidase inhibitor DPI (25 µM), or DMSO (vehicle) for 30 min in the continued presence of LPS, then 2’,7’-dichlorofluorescein diacetate (2 µM) was added for 30 min, followed by ATP (5 mM) for the indicated time, then ROS levels were determined by measuring the mean fluorescence intensity (MFI) of the fluorophore carboxyl-DCF and expressing this value relative to that at time zero. In (B), J774A.1 macrophages (1 × 10^6/ml; 1 ml) were incubated with compound 1h (20 µM), DPI (25 µM), or DMSO (vehicle) for 30 min, then LPS (1 µg/ml) was added for 6 h; the cells were then incubated with 2’,7’-dichlorofluorescein diacetate (2 µM) for 30 min, then with ATP (5 mM) for the indicated time and ROS levels were measured by detection of the fluorescence intensity of the fluorophore carboxyl-DCF and expressed relative to that at time zero.

RAW 264.7 cells = test: AlamarBlue assay for cell viability (cytotoxicity); conditions: read-out: IC50 (cytotoxicity), RAW 264.7 macrophages, 24 h treatment, 6.25-100 µM tested

O=c1cc(O)cc(/C=C/C=C/C=C/C=C/c2[nH]ccc2Cl)o1 [compound 1h]
LPS-induced proIL-1β expression [1]: inhibited LPS-induced proIL-1β expression in a dose-dependent fashion
NLRP3 protein expression [1]: increased NLRP3 expression
NF-κB transcriptional activity (SEAP reporter) [2]: reduced
ATP-induced ROS production, compound added after LPS priming ([3]; J774A.1, LPS 6 h, then compound 1h 20 µM or DPI 25 µM 30 min, ATP 5 mM 0-40 min): slightly reduced ATP-induced ROS production at 40 min
ATP-induced ROS production, compound added 30 min before LPS priming ([3]; J774A.1, compound 1h 20 µM or DPI 25 µM 30 min, then LPS 6 h, then ATP 5 mM): significantly inhibited ATP-induced ROS production
IC50 (RAW 264.7 cells): > 100 µM
